Results published in ChEMBL document CHEMBL6096734, “Design, Synthesis and Anti-Inflammatory Evaluation of 3-Substituted 5-Amidobenzoate Derivatives as Novel P2Y14 Receptor Antagonists via Structure-Guided Molecular Hybridization” (J Med Chem, 2025).
pIC50: −log10 of the molar value. Each block holds one compound with its values, some of them ahead of it. Activity calls are given as the source filed them. The calls are words filed in the database; no cut-off is given here.

How the values were obtained:
[1] = target: T1, P2Y purinoceptor 14 (Homo sapiens) (UniProt Q15391); settings: time 30.0 min
T1 sequence (whole entry): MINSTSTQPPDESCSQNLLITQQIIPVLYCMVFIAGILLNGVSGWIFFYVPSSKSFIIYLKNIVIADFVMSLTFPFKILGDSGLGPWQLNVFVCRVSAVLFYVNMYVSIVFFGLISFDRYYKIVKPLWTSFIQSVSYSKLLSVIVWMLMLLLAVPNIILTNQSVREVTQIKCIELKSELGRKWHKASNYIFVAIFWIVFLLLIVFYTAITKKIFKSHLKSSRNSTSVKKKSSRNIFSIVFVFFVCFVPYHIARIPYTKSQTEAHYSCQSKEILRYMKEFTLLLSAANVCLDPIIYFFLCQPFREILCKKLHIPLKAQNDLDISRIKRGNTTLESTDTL

P2Y purinoceptor 14 = target: T2, P2Y purinoceptor 14 (Homo sapiens, UniProt Q15391); assay: Antagonist activity at human P2Y14R stably expressed in HEK293 cells assessed as inhibition of UDPG-induced cAMP accumulation at 100 nM incubated for 30 mins in presence of forskolin by cAMP-Glo assay relative to control; format: functional, cell-based
T2 sequence (Q15391 whole entry): T1 sequence (whole entry)

Mus musculus [2] = assay: Anti-inflammatory activity in LPS-induced male C57BL/6 mouse model of acute […] injury assessed as decrease in CXCL10 mRNA expression in lung at 2 mg/kg measured after 7 days by qPCR analysis; format: functional, organism-based; settings: time 7.0 day
Mus musculus [3] = assay: Anti-inflammatory activity in LPS-induced male C57BL/6 mouse model of acute […] injury assessed as decrease in caspase-1 expression at p10 subunit at 2 mg/kg measured after 7 days; format: functional, organism-based; settings: time 7.0 day
Mus musculus [4] = assay: Anti-inflammatory activity in LPS-induced male C57BL/6 mouse model of acute […] injury assessed as decrease in CCL2 mRNA expression in lung at 2 mg/kg measured after 7 days by qPCR analysis; format: functional, organism-based; settings: time 7.0 day
Mus musculus [5] = assay: Anti-inflammatory activity in LPS-induced male C57BL/6 mouse model of acute […] injury assessed as decrease in CXCL1 level in serum at 2 mg/kg measured after 7 days by ELISA method; format: functional, organism-based; settings: time 7.0 day
Mus musculus [6] = assay: Anti-inflammatory activity in LPS-induced male C57BL/6 mouse model of acute […] injury assessed as decrease in F4/80+ macrophage in lung tissue at 2 mg/kg measured after 7 days by immunofluorescence analysis; format: functional, organism-based; settings: time 7.0 day
Mus musculus [7] = assay: Anti-inflammatory activity in LPS-induced male C57BL/6 mouse model of acute […] injury assessed as decrease in caspase-1 expression at p20 subunit at 2 mg/kg measured after 7 days; format: functional, organism-based; settings: time 7.0 day
Mus musculus [8] = assay: Anti-inflammatory activity in LPS-induced male C57BL/6 mouse model of acute […] injury assessed as decrease in ASC expression at 2 mg/kg measured after 7 days; format: functional, organism-based; settings: time 7.0 day
Mus musculus [9] = assay: Anti-inflammatory activity in LPS-induced male C57BL/6 mouse model of acute […] injury assessed as decrease in CCL2 level in serum at 2 mg/kg measured after 7 days by ELISA method; format: functional, organism-based; settings: time 7.0 day
Mus musculus [10] = assay: Anti-inflammatory activity in LPS-induced male C57BL/6 mouse model of acute […] injury assessed as decrease NE level at 2 mg/kg measured after 7 days; format: functional, organism-based; settings: time 7.0 day
Mus musculus [11] = assay: Anti-inflammatory activity in LPS-induced male C57BL/6 mouse model of acute […] injury assessed as decrease in NLRP3 expression at 2 mg/kg measured after 7 days; format: functional, organism-based; settings: time 7.0 day
Mus musculus [12] = assay: Anti-inflammatory activity in LPS-induced male C57BL/6 mouse model of acute […] injury assessed as decrease in TNF-alpha level at 2 mg/kg measured after 7 days; format: functional, organism-based; settings: time 7.0 day
Mus musculus [13] = assay: Anti-inflammatory activity in LPS-induced male C57BL/6 mouse model of acute […] injury assessed as reduction of interstitial hemorrhage at 2 mg/kg measured after 7 days by H and E staining based analysis; format: functional, organism-based; settings: time 7.0 day
Mus musculus [14] = assay: Anti-inflammatory activity in LPS-induced male C57BL/6 mouse model of acute […] injury assessed as appearance of tight junction integrity at 2 mg/kg measured after 7 days by ZO-1 staining based immunofluorescence analysis; format: functional, organism-based; settings: time 7.0 day
Mus musculus [15] = assay: Anti-inflammatory activity in LPS-induced male C57BL/6 mouse model of acute […] injury assessed as decrease in CXCL1 mRNA expression in lung at 2 mg/kg measured after 7 days by qPCR analysis; format: functional, organism-based; settings: time 7.0 day
Mus musculus [16] = assay: Anti-inflammatory activity in LPS-induced male C57BL/6 mouse model of acute […] injury assessed as reduction of lung edema at 2 mg/kg measured after 7 days by H and E staining based analysis; format: functional, organism-based; settings: time 7.0 day
Mus musculus [17] = assay: Anti-inflammatory activity in LPS-induced male C57BL/6 mouse model of acute […] injury assessed as decrease in lymphocyte count in BALF at 2 mg/kg measured after 7 days; format: functional, organism-based; settings: time 7.0 day
Mus musculus [18] = assay: Anti-inflammatory activity in LPS-induced male C57BL/6 mouse model of acute […] injury assessed as decrease in neutrophil count in BALF at 2 mg/kg measured after 7 days; format: functional, organism-based; settings: time 7.0 day
Mus musculus [19] = assay: Anti-inflammatory activity in LPS-induced male C57BL/6 mouse model of acute […] injury assessed as decrease in Ly6G+ neutrophils in lung tissue at 2 mg/kg measured after 7 days by immunofluorescence analysis; format: functional, organism-based; settings: time 7.0 day
Mus musculus [20] = assay: Anti-inflammatory activity in LPS-induced male C57BL/6 mouse model of acute […] injury assessed as reduction in Wet/dry weight ratio at 2 mg/kg measured after 7 days; format: functional, organism-based; settings: time 7.0 day
Mus musculus [21] = assay: Anti-inflammatory activity in LPS-induced male C57BL/6 mouse model of acute […] injury assessed as decrease in IL-1 beta level at 2 mg/kg measured after 7 days; format: functional, organism-based; settings: time 7.0 day
Mus musculus [22] = assay: Anti-inflammatory activity in LPS-induced male C57BL/6 mouse model of acute […] injury assessed as decrease MPO level at 2 mg/kg measured after 7 days; format: functional, organism-based; settings: time 7.0 day
Mus musculus [23] = assay: Anti-inflammatory activity in LPS-induced male C57BL/6 mouse model of acute […] injury assessed as reduction of intravascular congestion at 2 mg/kg measured after 7 days by H and E staining based analysis; format: functional, organism-based; settings: time 7.0 day
Mus musculus [24] = assay: Anti-inflammatory activity in LPS-induced male C57BL/6 mouse model of acute […] injury assessed as decrease dsDNA formation at 2 mg/kg measured after 7 days; format: functional, organism-based; settings: time 7.0 day
Mus musculus [25] = assay: Anti-inflammatory activity in LPS-induced male C57BL/6 mouse model of acute […] injury assessed as alveolar wall thickening at 2 mg/kg measured after 7 days by H and E staining based analysis; format: functional, organism-based; settings: time 7.0 day
Mus musculus [26] = assay: Anti-inflammatory activity in LPS-induced male C57BL/6 mouse model of acute […] injury assessed as reduction of neutrophil infiltration at 2 mg/kg measured after 7 days by H and E staining based analysis; format: functional, organism-based; settings: time 7.0 day
Mus musculus [27] = assay: Anti-inflammatory activity in LPS-induced male C57BL/6 mouse model of acute […] injury assessed as decrease in total WBC count in BALF at 2 mg/kg measured after 7 days; format: functional, organism-based; settings: time 7.0 day
Mus musculus [28] = assay: Anti-inflammatory activity in LPS-induced male C57BL/6 mouse model of acute […] injury assessed as decrease CXCL9 mRNA expression in lung at 2 mg/kg measured after 7 days by qPCR analysis; format: functional, organism-based; settings: time 7.0 day
Mus musculus [29] = assay: Anti-inflammatory activity in LPS-induced male C57BL/6 mouse model of acute […] injury assessed as decrease in monocyte count in BALF at 2 mg/kg measured after 7 days; format: functional, organism-based; settings: time 7.0 day
Mus musculus [30] = assay: Anti-inflammatory activity in LPS-induced male C57BL/6 mouse model of acute […] injury assessed as decrease in GSDMD-N expression at 2 mg/kg measured after 7 days; format: functional, organism-based; settings: time 7.0 day
Mus musculus [31] = assay: Anti-inflammatory activity in LPS-induced male C57BL/6 mouse model of acute […] injury assessed as decrease in IL-6 level at 2 mg/kg measured after 7 days; format: functional, organism-based; settings: time 7.0 day
[32] = HEK293, filed as antagonist, dose 100.0 nM

inhibition [1, 32]: 48%
Structure (SMILES): COc1ccc(CC(=O)Nc2cc(C(=O)O)cc(-c3nc4ccccc4o3)c2)cc1

inhibition ([1]; HEK293, dose 100.0 nM): 38.3%
Structure (SMILES): O=C(Cn1cncn1)Nc1cc(C(=O)O)cc(-c2nc3ccccc3o2)c1

inhibition ([1]; HEK293, dose 100.0 nM): 39.3%
Structure (SMILES): COC(=O)c1cc(NC(=O)Cc2ccc(OC)cc2)cc(-c2nc3ccccc3o2)c1

inhibition [1, 32]: 41.5%
Structure (SMILES): COC(=O)c1cc(NC(=O)Cn2cncn2)cc(-c2nc3ccccc3o2)c1

inhibition ([1]; HEK293, dose 100.0 nM): 35.2%
Structure (SMILES): O=C(Cc1ccccc1)Nc1cc(C(=O)O)cc(-c2nc3ccccc3o2)c1

inhibition ([1]; HEK293, dose 100.0 nM): 30.8%
Structure (SMILES): O=C(Cc1ccc(F)cc1)Nc1cc(C(=O)O)cc(-c2nc3ccccc3o2)c1

pIC50 (P2Y purinoceptor 14): 9.08
Structure (SMILES): Cc1ccc(CC(=O)Nc2cc(C(=O)NCCOCCOCCOCCNC(=O)CCCC[C@H]3SC[C@H]4NC(=O)N[C@H]43)cc(-c3nc4ccccc4[nH]3)c2)cc1

inhibition ([1]; HEK293, dose 100.0 nM): 39.8%
Structure (SMILES): O=C(Cc1cccs1)Nc1cc(C(=O)O)cc(-c2nc3ccccc3o2)c1

inhibition ([1]; HEK293, dose 100.0 nM): 20.9%
Structure (SMILES): O=C(Cc1ccc(Br)cc1)Nc1cc(C(=O)O)cc(-c2nc3ccccc3o2)c1

inhibition ([1]; HEK293, dose 100.0 nM): 34.5%
Structure (SMILES): COC(=O)c1cc(NC(=O)Cc2ccc(C)c(C)c2)cc(-c2nc3ccccc3o2)c1

inhibition ([1]; HEK293, dose 100.0 nM): 36.5%
Structure (SMILES): COC(=O)c1cc(NC(=O)Cc2cccs2)cc(-c2nc3ccccc3o2)c1

Structure (SMILES): C[C@@H]1C[C@H]2[C@@H]3CCC4=CC(=O)C=C[C@]4(C)[C@@]3(F)[C@@H](O)C[C@]2(C)[C@@]1(O)C(=O)CO
Activity (Mus musculus [2]): Active
Activity (Mus musculus [3]): Active
Activity (Mus musculus [4]): Active
Activity (Mus musculus [5]): Active
Activity (Mus musculus [6]): Active
Activity (Mus musculus [7]): Active
Activity (Mus musculus [8]): Active
Activity (Mus musculus [9]): Active
Activity (Mus musculus [10]): Active
Activity (Mus musculus [11]): Active
Activity (Mus musculus [12]): Active
Activity (Mus musculus [13]): Active
Activity (Mus musculus [14]): Active
Activity (Mus musculus [15]): Active
Activity (Mus musculus [16]): Active
Activity (Mus musculus [17]): Active
Activity (Mus musculus [18]): Active
Activity (Mus musculus [19]): Active
Activity (Mus musculus [20]): Active
Activity (Mus musculus [21]): Active
Activity (Mus musculus [22]): Active
Activity (Mus musculus [23]): Active
Activity (Mus musculus [24]): Active
Activity (Mus musculus [25]): Active
Activity (Mus musculus [26]): Active
Activity (Mus musculus [27]): Active
Activity (Mus musculus [28]): Active
Activity (Mus musculus [29]): Active
Activity (Mus musculus [30]): Active
Activity (Mus musculus [31]): Active

inhibition ([1]; HEK293, dose 100.0 nM): 24.2%
Structure (SMILES): O=C(Cc1ccc(-n2cccc2)cc1)Nc1cc(C(=O)O)cc(-c2nc3ccccc3o2)c1

inhibition [1, 32]: 48.6%
Structure (SMILES): COC(=O)c1cc(NC(=O)Cc2ccccc2)cc(-c2nc3ccccc3o2)c1

inhibition [1, 32]: 46.1%
Structure (SMILES): N#Cc1ccc(CC(=O)Nc2cc(C(=O)O)cc(-c3nc4ccccc4o3)c2)cc1

inhibition ([1]; HEK293, dose 100.0 nM): 23.1%
Structure (SMILES): O=C(Cc1ccc(C(F)(F)F)cc1)Nc1cc(C(=O)O)cc(-c2nc3ccccc3o2)c1

inhibition ([1]; HEK293, dose 100.0 nM): 26.3%
Structure (SMILES): COC(=O)c1cc(NC(=O)Cn2cccc2)cc(-c2nc3ccccc3o2)c1

inhibition [1, 32]: 43.2%
Structure (SMILES): O=C(Cn1cccc1)Nc1cc(C(=O)O)cc(-c2nc3ccccc3o2)c1

inhibition ([1]; HEK293, dose 100.0 nM): 32.3%
Structure (SMILES): COC(=O)c1cc(NC(=O)Cc2ccc(-n3cccc3)cc2)cc(-c2nc3ccccc3o2)c1

inhibition ([1]; HEK293, dose 100.0 nM): inactive
Structure (SMILES): COC(=O)c1cc(NC(=O)Cc2ccc(F)cc2)cc(-c2nc3ccccc3o2)c1

inhibition [1, 32]: 42.3%
Structure (SMILES): COC(=O)c1cc(NC(=O)Cc2ccc(C)cc2C)cc(-c2nc3ccccc3o2)c1

inhibition ([1]; HEK293, dose 100.0 nM): 34.7%
Structure (SMILES): COC(=O)c1cc(NC(=O)Cc2ccc(C)cc2)cc(-c2nc3ccccc3s2)c1
